{"source": "patent US9181305B2", "about": "“Exendin-4 peptide analogues” (SANOFI, priority 2012, dated 2015)", "note": "*1 amine or outer side, *2 acyl side, *3 side chain or, on linkers, in order; H or OH if unused. Where a SMILES comes first, the peptide text is derived from it. Side-chain parts run from the residue outwards. [ ]: non-standard residue; d: D form. The star is where a group is joined. γGlu = O=C(O)[C@H](CCC(=O)[*:2])N[*:1]; Palmitoyl = CCCCCCCCCCCCCCCC(=O)*; Cha = N[C@@H](CC1CCCCC1)C(=O)O; Orn = NCCC[C@H](N)C(=O)O; Aib = CC(C)(N)C(=O)O; βAla = NCCC(=O)O"}
{"target": "T1, human GLP-1 receptor (hGLP-1 R) (Homo sapiens, UniProt P43220)", "T1 construct": "expressed in transfected cells; host or cells: HEK-293", "T1 sequence (P43220 24-463)": "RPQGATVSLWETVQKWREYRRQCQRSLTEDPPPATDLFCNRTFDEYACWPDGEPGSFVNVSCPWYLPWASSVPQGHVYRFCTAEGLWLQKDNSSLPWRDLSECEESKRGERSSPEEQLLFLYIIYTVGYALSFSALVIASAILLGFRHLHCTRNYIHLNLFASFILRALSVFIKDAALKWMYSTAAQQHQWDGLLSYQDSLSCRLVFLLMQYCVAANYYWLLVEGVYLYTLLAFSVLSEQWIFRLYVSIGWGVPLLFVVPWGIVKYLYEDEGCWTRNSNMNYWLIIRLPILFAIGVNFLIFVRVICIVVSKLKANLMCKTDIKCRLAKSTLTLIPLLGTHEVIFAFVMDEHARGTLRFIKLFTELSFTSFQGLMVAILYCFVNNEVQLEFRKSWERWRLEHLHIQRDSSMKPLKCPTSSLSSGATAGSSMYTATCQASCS", "test": "cAMP response (HTRF) of HEK-293 cells stably expressing human GLP-1 receptor", "format": "cell-based", "details": "HEK-293 cells expressing human GLP-1 receptor, cAMP formation", "protocol": "cAMP content of cells was determined using a kit from Cisbio Corp. (cat. no. 62AM4PEC) based on HTRF (Homogenous Time Resolved Fluorescence). For preparation, cells were split into T175 culture flasks and grown overnight to near confluency in medium (DMEM/10% FBS). Medium was then removed and cells washed with PBS lacking calcium and magnesium, followed by proteinase treatment with accutase (Sigma-Aldrich cat. no. A6964). Detached cells were washed and resuspended in assay buffer (1×HBSS; 20 mM HEPES, 0.1% BSA, 2 mM IBMX) and cellular density determined. […] For measurement, 25 μl of test compound in assay buffer was added to the wells, followed by incubation for 30 minutes at room temperature.", "units": {"EC50": "pM"}}
{"smiles": "CCCCCCCCCCCCCCCC(=O)N[C@@H](CCC(=O)NCCCC[C@H](NC(=O)[C@H](CO)NC(=O)[C@@H]1CCCN1C(=O)[C@@H]1CCCN1C(=O)[C@@H]1CCCN1C(=O)[C@H](C)NC(=O)CNC(=O)[C@H](CO)NC(=O)[C@H](CO)NC(=O)[C@@H]1CCCN1C(=O)CNC(=O)CNC(=O)[C@H](CC(N)=O)NC(=O)[C@H](CCCCN)NC(=O)[C@H](CC(C)C)NC(=O)[C@H](Cc1c[nH]c2ccccc12)NC(=O)[C@H](CCC(=O)O)NC(=O)[C@@H](NC(=O)[C@H](Cc1ccccc1)NC(=O)[C@H](CC(=O)O)NC(=O)[C@H](CCC(N)=O)NC(=O)[C@H](C)NC(=O)[C@H](CCCNC(=N)N)NC(=O)[C@H](CCCNC(=N)N)NC(=O)[C@H](CCCCN)NC(=O)[C@H](CC(=O)O)NC(=O)[C@H](CCSC)NC(=O)[C@H](CCC(N)=O)NC(=O)[C@H](CCCCN)NC(=O)[C@H](CO)NC(=O)[C@H](CC(C)C)NC(=O)[C@H](CC(=O)O)NC(=O)[C@H](CO)NC(=O)[C@@H](NC(=O)[C@H](Cc1ccccc1)NC(=O)[C@@H](NC(=O)CNC(=O)[C@H](CCC(N)=O)NC(=O)[C@@H](CO)NC(=O)[C@@H](N)Cc1c[nH]cn1)[C@@H](C)O)[C@@H](C)O)[C@@H](C)CC)C(N)=O)C(=O)O", "note": "[(69)] (H-H[dS]QGTFTSDLSKQMDKRRAQDFIEWLKNGGPSSGAPPPSK([γGlu-Palmitoyl])-NH2)", "EC50": 7.6}
{"smiles": "CCCCCCCCCCCCCCCC(=O)N[C@@H](CCC(=O)NCCCC[C@H](NC(=O)[C@H](CO)NC(=O)[C@@H]1CCCN1C(=O)[C@@H]1CCCN1C(=O)[C@@H]1CCCN1C(=O)[C@H](C)NC(=O)CNC(=O)[C@H](CO)NC(=O)[C@H](CO)NC(=O)[C@@H]1CCCN1C(=O)CNC(=O)CNC(=O)C(C)(C)NC(=O)[C@H](CCCCN)NC(=O)[C@H](CC(C)C)NC(=O)[C@H](Cc1c[nH]c2ccccc12)NC(=O)[C@H](CCC(=O)O)NC(=O)[C@@H](NC(=O)[C@H](Cc1ccccc1)NC(=O)[C@H](CC(=O)O)NC(=O)[C@H](CCC(N)=O)NC(=O)[C@H](C)NC(=O)[C@H](CCCNC(=N)N)NC(=O)[C@H](CCCNC(=N)N)NC(=O)[C@H](CO)NC(=O)[C@H](CC(=O)O)NC(=O)[C@H](CCSC)NC(=O)[C@H](CCC(N)=O)NC(=O)[C@H](CCCCN)NC(=O)[C@H](CO)NC(=O)[C@H](CC(C)C)NC(=O)[C@H](CC(=O)O)NC(=O)[C@H](CO)NC(=O)[C@@H](NC(=O)[C@H](Cc1ccccc1)NC(=O)[C@@H](NC(=O)CNC(=O)[C@H](CCC(N)=O)NC(=O)[C@@H](CO)NC(=O)[C@@H](N)Cc1c[nH]cn1)[C@@H](C)O)[C@@H](C)O)[C@@H](C)CC)C(N)=O)C(=O)O", "note": "[(72)] (H-H[dS]QGTFTSDLSKQMDSRRAQDFIEWLK[Aib]GGPSSGAPPPSK([γGlu-Palmitoyl])-NH2)", "EC50": 5.2}
{"smiles": "CCCCCCCCCCCCCCCC(=O)N[C@@H](CCC(=O)NCCCC[C@H](NC(=O)[C@@H]1CCCN1C(=O)[C@@H]1CCCN1C(=O)[C@@H]1CCCN1C(=O)[C@H](C)NC(=O)CNC(=O)[C@H](CO)NC(=O)[C@H](CO)NC(=O)[C@@H]1CCCN1C(=O)CNC(=O)CNC(=O)C(C)(C)NC(=O)[C@H](CCCCN)NC(=O)[C@H](CC(C)C)NC(=O)[C@H](Cc1c[nH]c2ccccc12)NC(=O)[C@H](CCC(=O)O)NC(=O)[C@@H](NC(=O)[C@H](Cc1ccccc1)NC(=O)[C@H](CC(=O)O)NC(=O)[C@H](CCC(N)=O)NC(=O)[C@H](C)NC(=O)[C@H](CCCNC(=N)N)NC(=O)[C@H](CCCNC(=N)N)NC(=O)[C@H](CO)NC(=O)[C@H](CCC(=O)O)NC(=O)[C@H](CCSC)NC(=O)[C@H](CCC(N)=O)NC(=O)[C@H](CCCCN)NC(=O)[C@H](CO)NC(=O)[C@H](CC(C)C)NC(=O)[C@H](CC(=O)O)NC(=O)[C@H](CO)NC(=O)[C@@H](NC(=O)[C@H](Cc1ccccc1)NC(=O)[C@@H](NC(=O)CNC(=O)[C@H](CCC(N)=O)NC(=O)[C@@H](CO)NC(=O)[C@@H](N)Cc1c[nH]cn1)[C@@H](C)O)[C@@H](C)O)[C@@H](C)CC)C(N)=O)C(=O)O", "note": "[(80)] (H-H[dS]QGTFTSDLSKQMESRRAQDFIEWLK[Aib]GGPSSGAPPPK([γGlu-Palmitoyl])-NH2)", "EC50": 10.8}
{"smiles": "CCCCCCCCCCCCCCCC(=O)N[C@@H](CCC(=O)NCCC[C@H](NC(=O)[C@H](CO)NC(=O)[C@@H]1CCCN1C(=O)[C@@H]1CCCN1C(=O)[C@@H]1CCCN1C(=O)[C@H](C)NC(=O)CNC(=O)[C@H](CO)NC(=O)[C@H](CO)NC(=O)[C@@H]1CCCN1C(=O)CNC(=O)CNC(=O)[C@H](CO)NC(=O)[C@H](CCCCN)NC(=O)[C@H](CC(C)C)NC(=O)[C@H](Cc1c[nH]c2ccccc12)NC(=O)[C@H](CCC(=O)O)NC(=O)[C@@H](NC(=O)[C@H](Cc1ccccc1)NC(=O)[C@H](CC(=O)O)NC(=O)[C@H](CCC(N)=O)NC(=O)[C@H](C)NC(=O)[C@H](CCCNC(=N)N)NC(=O)[C@H](CCCNC(=N)N)NC(=O)[C@H](CO)NC(=O)[C@H](CCC(=O)O)NC(=O)[C@H](CCSC)NC(=O)[C@H](CCC(N)=O)NC(=O)[C@H](CCCCN)NC(=O)[C@H](CO)NC(=O)[C@H](CC(C)C)NC(=O)[C@H](CC(=O)O)NC(=O)[C@H](CO)NC(=O)[C@@H](NC(=O)[C@H](Cc1ccccc1)NC(=O)[C@@H](NC(=O)CNC(=O)[C@H](CCC(N)=O)NC(=O)[C@@H](CO)NC(=O)[C@@H](N)Cc1c[nH]cn1)[C@@H](C)O)[C@@H](C)O)[C@@H](C)CC)C(N)=O)C(=O)O", "note": "[(88)] (H-H[dS]QGTFTSDLSKQMESRRAQDFIEWLKSGGPSSGAPPPS[Orn]([γGlu-Palmitoyl])-NH2)", "EC50": 5.1}
{"smiles": "CCCCCCCCCCCCCCCC(=O)N[C@@H](CCC(=O)NCCCC[C@H](NC(=O)[C@H](CO)NC(=O)[C@@H]1CCCN1C(=O)[C@@H]1CCCN1C(=O)[C@@H]1CCCN1C(=O)[C@H](C)NC(=O)CNC(=O)[C@H](CO)NC(=O)[C@H](CO)NC(=O)[C@@H]1CCCN1C(=O)CNC(=O)CNC(=O)[C@H](CO)NC(=O)[C@H](CCCCN)NC(=O)[C@H](CC(C)C)NC(=O)[C@H](Cc1c[nH]c2ccccc12)NC(=O)[C@H](CCC(=O)O)NC(=O)[C@@H](NC(=O)[C@H](Cc1ccccc1)NC(=O)[C@H](CC(C)C)NC(=O)[C@H](CCCNC(=N)N)NC(=O)[C@H](C)NC(=O)[C@H](CCCNC(=N)N)NC(=O)[C@H](CCCNC(=N)N)NC(=O)[C@H](CO)NC(=O)[C@H](CCC(=O)O)NC(=O)[C@H](CCSC)NC(=O)[C@H](CCC(N)=O)NC(=O)[C@H](CCCCN)NC(=O)[C@H](CO)NC(=O)[C@H](CC(C)C)NC(=O)[C@H](CC(=O)O)NC(=O)[C@H](CO)NC(=O)[C@@H](NC(=O)[C@H](Cc1ccccc1)NC(=O)[C@@H](NC(=O)CNC(=O)[C@H](CCC(N)=O)NC(=O)[C@@H](CO)NC(=O)[C@@H](N)Cc1c[nH]cn1)[C@@H](C)O)[C@@H](C)O)[C@@H](C)CC)C(N)=O)C(=O)O", "note": "[(91)] (H-H[dS]QGTFTSDLSKQMESRRARLFIEWLKSGGPSSGAPPPSK([γGlu-Palmitoyl])-NH2)", "EC50": 6.7}
{"smiles": "CCCCCCCCCCCCCCCC(=O)N[C@@H](CCC(=O)NCCCC[C@H](NC(=O)[C@H](CO)NC(=O)[C@@H]1CCCN1C(=O)[C@@H]1CCCN1C(=O)[C@@H]1CCCN1C(=O)[C@H](C)NC(=O)CNC(=O)[C@H](CO)NC(=O)[C@H](CO)NC(=O)[C@@H]1CCCN1C(=O)CNC(=O)CNC(=O)[C@H](C)NC(=O)[C@H](CCCCN)NC(=O)[C@H](CC(C)C)NC(=O)[C@H](Cc1c[nH]c2ccccc12)NC(=O)[C@H](CCC(=O)O)NC(=O)[C@@H](NC(=O)[C@H](Cc1ccccc1)NC(=O)[C@H](CC(=O)O)NC(=O)[C@H](CCC(N)=O)NC(=O)[C@H](C)NC(=O)[C@H](CCCNC(=N)N)NC(=O)[C@H](CCCNC(=N)N)NC(=O)[C@H](CO)NC(=O)[C@H](CCC(=O)O)NC(=O)[C@H](CC1CCCCC1)NC(=O)[C@H](CCC(N)=O)NC(=O)[C@H](CCCCN)NC(=O)[C@H](CO)NC(=O)[C@H](CC(C)C)NC(=O)[C@H](CC(=O)O)NC(=O)[C@H](CO)NC(=O)[C@@H](NC(=O)[C@H](Cc1ccccc1)NC(=O)[C@@H](NC(=O)CNC(=O)[C@H](CCC(N)=O)NC(=O)[C@@H](CO)NC(=O)[C@@H](N)Cc1c[nH]cn1)[C@@H](C)O)[C@@H](C)O)[C@@H](C)CC)C(N)=O)C(=O)O", "note": "[(95)] (H-H[dS]QGTFTSDLSKQ[Cha]ESRRAQDFIEWLKAGGPSSGAPPPSK([γGlu-Palmitoyl])-NH2)", "EC50": 6.7}
{"smiles": "CCCCCCCCCCCCCCCC(=O)NCCC(=O)NCCC(=O)NCCCC[C@H](NC(=O)[C@H](CO)NC(=O)[C@@H]1CCCN1C(=O)[C@@H]1CCCN1C(=O)[C@@H]1CCCN1C(=O)[C@H](C)NC(=O)CNC(=O)[C@H](CO)NC(=O)[C@H](CO)NC(=O)[C@@H]1CCCN1C(=O)CNC(=O)CNC(=O)[C@H](CO)NC(=O)[C@H](CCCCN)NC(=O)[C@H](CC(C)C)NC(=O)[C@H](Cc1c[nH]c2ccccc12)NC(=O)[C@H](CCC(=O)O)NC(=O)[C@@H](NC(=O)[C@H](Cc1ccccc1)NC(=O)[C@H](CC(=O)O)NC(=O)[C@H](CCC(N)=O)NC(=O)[C@H](C)NC(=O)[C@H](CCCNC(=N)N)NC(=O)[C@H](CCCNC(=N)N)NC(=O)[C@H](CO)NC(=O)[C@H](CCC(=O)O)NC(=O)[C@H](CCSC)NC(=O)[C@H](CCC(N)=O)NC(=O)[C@H](CCCCN)NC(=O)[C@H](CO)NC(=O)[C@H](CC(C)C)NC(=O)[C@H](CC(=O)O)NC(=O)[C@H](CO)NC(=O)[C@@H](NC(=O)[C@H](Cc1ccccc1)NC(=O)[C@@H](NC(=O)CNC(=O)[C@H](CCC(N)=O)NC(=O)[C@@H](CO)NC(=O)[C@@H](N)Cc1c[nH]cn1)[C@@H](C)O)[C@@H](C)O)[C@@H](C)CC)C(N)=O", "note": "[(98)] (H-H[dS]QGTFTSDLSKQMESRRAQDFIEWLKSGGPSSGAPPPSK([βAla-βAla-Palmitoyl])-NH2)", "EC50": 5.1}
